Measurements published in patent publication US9828362B2, “1,4-disubstituted imidazole derivative” (Sumitomo Dainippon Pharma Co., Ltd., priority 2015, dated 2017).

What was measured:
[1] = tested on: HCT-116 cells; assay: Test for inhibiting sphere-forming ability of cancer cells (in the presence of BSA); assay type: cell-based; settings: Homo sapiens, 96 h, Ultra-Low Attachment plate, medium with 5% bovine serum albumin (BSA), cultured 4 days, CellTiter-Glo, read-out: Sphere IC50 value (concentration for 50% inhibition of cell proliferation)
Method: HCT-116 cells were available from the American Type Culture Collection (ATCC). HCT-116 cells were cultured at 37° C. and 5% CO2 using the McCoy's 5a medium containing 10% fetal bovine serum (FBS) and 1% penicillin/streptomycin. […] The test compounds were added into each well to adjust the final concentration of DMSO to 0.1%, and the cells were cultured for 4 days.

[2] = tested on: HCT-116 tumor; assay: Anti-tumor effect to HCT-116 tumor-bearing mouse; assay type: in vivo; settings: nude mouse, oral, dosage 30 mg/kg, administration period 17 days, tumor volume
Excerpt: The present compound can be used to evaluate the anti-tumor effect thereof. A 4 to 7-week-old nude mouse (BALB/cAnNCrj-nu/nu, female, CHARLES RIVER LABORATORIES JAPAN, INC.) received intradermal transplantation of HCT-116 cells (ATCC) in an amount of 3×10^6 cells/mouse around the ventral portion. The engraftment of HCT-116 cells was observed 5 to 14 days after the transplantation, and then each compound suspended in a solvent such as 0.5% methylcellulose solution was orally administrated to the mouse in a dose of 1 to 100 mg/kg one to twice daily. The tumor volume was measured over time after the administration. to evaluate the effect for reducing the tumor volume by the administration of each compound. The tumor volume can be calculated from the minor axis and the major axis of the tumor measured with a digital caliper (Mitutoyo) according to the following formula: Tumor volume [mm^3]=0.5×minor axis [mm]×(major axis [ram])^2
The tumor volume is control administration group treated. with only a solvent such as 0.5% methylcellulose solution was compared with that of the present compound administration group, and T/C value was calculated according the following formula to evaluate the anti-tumor effect of the present compound. […]

SMILES | IC50 [1] [µM] | T/C (%) [2] [%]
CC(C)(O)c1ccc(/C=C/C(=O)Nc2cn(Cc3cccc(C(F)(F)F)c3)cn2)cn1 [Example 53, (2E)-3-[6-(2-Hydroxypropan-2-yl)pyridin-3-yl]-N-{1-[3-(trifluoromethyl)benzyl]-1H-imidazol-4-yl}prop-2-enamide] | > 10 | 
Nc1cc(C(=O)Nc2cn(Cc3cc(F)c(F)c(F)c3)cn2)cnc1CO [Example 46] |  | 91
